The text below walks through data of patent US11013735B2, “Specific Akt3 inhibitor and uses thereof” (Augusta University Research Institute, Inc., priority 2016, dated 2021).

One assay addresses T1, Akt1 (Mus musculus, UniProt P31750).
T1 construct: endogenous in cells; host or cells: FACS-sorted primary nTregs from WT C57BL/6J (foxp3-GFP) mice
Description: Immunoblot of Akt1 phosphorylation (pAkt1) in activated nTregs. The assay is classed as cell-based, WT C57BL/6J (foxp3-GFP) mice. Conditions: nTregs on anti-CD3 with IL2 and anti-CD28, different concentrations of inhibitor, 72 hrs. As for the experimental part: (§1) FACS-sorted natural regulatory T cells (nTregs), from WT C57BL/6J (foxp3-GFP) mice were plated on anti-CD3-coated plates and cultured in activation media (IL2 and anti-CD28) without inhibitors (Stimulated) and with different concentrations of inhibitor 4-[(6-nitroquinolin-4-yl)amino]-N-[4-(pyridin-4-ylamino)phenyl]benzamide (also referred to as JJ64-E) for 72 hrs. For negative control (Non-stimulated-NS) cells were left in media containing IL-2 for 72 hrs. nTreg cell lysates prepared on day 3 (72 hrs) of treatment were separated by SDS-PAGE and immunoblotted with specific antibodies (pAkt1) or pAkt3; actin was used as loading control.
On the technique in general: Immunoblotting shows a protein as a band on a membrane.

The next assay concerns nTregs. Description: Proliferation (level of VCT) of FACS-sorted nTregs by flow cytometry. The following applies: anti-CD3, IL2 and anti-CD28, 72 hrs, live gated cells. The assay is classed as cell-based, C57BL/6J(foxp3-GFP). On the procedure:
(§2) FACS-sorted nTregs, CD4+ and CD8+ T cells from C57BL/6J(foxp3-GFP) were plated on anti-CD3-coated plates and cultured in activation media (IL2 and anti-CD28) without inhibitors (Stimulated) and with inhibitors (JJ64-E) for 72 hrs. For negative control (Non-stimulated-NS) cells were left in media containing IL-2 for 72 hrs. After 72 hrs Proliferation (level of VCT) in live gated cells was measured by flow cytometry.
For orientation: A flow cytometer gives signals particle by particle.

Assay [1] deals with CD8 and other (FoxP3neg) CD4 T cells. Description: Percentage of CD4 and CD8 T cells in vivo in TC-1 tumor model. Further details: species or system WT C57BL/6 mice. Conditions: TC-1 tumor-bearing mice, 5 mg/kg or 10 mg/kg i.p. everyday from day 10, day 15, spleen. As for the experimental part:
WT C57BL/6 4-6 weeks old female mice (n=5/group) were injected s.c. in the right flank with 7×10^4 TC-1 cells. Mice from appropriate groups were treated with either 5 mg/kg or 10 mg/kg of JJ64-E injected (i.p.) everyday starting on day 10 after tumor implantation throughout the experiment. All groups were euthanized on day 15 of TC-1 implantation. The percentage of CD4 and CD8 were analyzed in splenic CD4+ cells by flow cytometry.

A further assay concerns CD4+ T cells. Description: Proliferation (level of VCT) of FACS-sorted CD4+ T cells by flow cytometry. The format is cell-based, C57BL/6J(foxp3-GFP). Conditions: anti-CD3, IL2 and anti-CD28, 72 hrs, live gated cells. On the procedure:
as §2

The next assay concerns the target T2, Akt3 (Mus musculus, UniProt Q9WUA6).
T2 construct: nTreg cell lysates prepared on day 3 (72 hrs) of treatment were separated by SDS-PAGE and immunoblotted; endogenous in cells; host or cells: FACS-sorted primary nTregs from WT C57BL/6J (foxp3-GFP) mice
Description: Immunoblot of Akt3 phosphorylation (pAkt3) in activated nTregs. The assay is classed as cell-based, WT C57BL/6J (foxp3-GFP) mice. Conditions: nTregs on anti-CD3 with IL2 and anti-CD28, different concentrations of inhibitor, 72 hrs. On the procedure:
as §1

Another assay concerns Tregs (CD4+Foxp3+). Description: Percentage of Tregs in vivo in TC-1 tumor model. Also on record: species or system WT C57BL/6J mice. Conditions: TC-1 tumor-bearing mice, 5 mg/kg or 10 mg/kg i.p. every day from day 10, analysed day 15. As for the experimental part:
WT C57BL/6J mice (n=3/group) were injected s.c. in the right flank with 7×10^4 TC-1 cells. Mice from appropriate groups were treated with either 5 mg/kg or 10 mg/kg of JJ64-E injected (i.p.) every day starting on day 10 after tumor implantation throughout the experiment. All groups were euthanized on day 15 of TC-1 implantation. The percentage of Tregs (CD4+Foxp3+) was analyzed by flow cytometry.
(§3) Statistical significance was determined by one-way ANOVA with Tukey's multiple comparison test (*, p<0.05; **, p<0.01; ***, p<0.001).

Assay [2] concerns TC-1 tumor. Description: TC-1 tumor growth and survival, JJ64-E alone or with vaccine. The assay is classed as in vivo, C57BL/6 mice. Conditions: i.p. every day from day 6. As for the experimental part:
C57BL/6 mice (n=5/group) were injected s.c. in the right flank with 7×10^4 TC-1 cells. Mice from appropriate groups were injected weekly with vaccine (s.c.) or DMSO 5% as a control. Mice were also treated with vaccine (weekly) along with either 10 mg/kg or 20 mg/kg of JJ64-E injected (i.p.) every day starting on day 6 after tumor implantation throughout the experiment.
FIGS. 5B and 5C are bar diagrams showing average tumor volumes of mice for each group. FIG. 5D is a Kaplan-Meier plot of the overall survival. Statistical significance was determined by Log-rank (Mantel-Cox) test.
as §3

Another assay has as its system CD8+ T cells. Description: Proliferation (level of VCT) of FACS-sorted CD8+ T cells by flow cytometry. The assay is classed as cell-based, C57BL/6J(foxp3-GFP). Conditions: anti-CD3, IL2 and anti-CD28, 72 hrs, live gated cells. As for the experimental part: as §2
Assay [3] deals with TC-1 tumor. Description: TC-1 tumor growth and survival, JJ64-C alone or with vaccine. The assay is classed as in vivo, C57BL/6 mice. Conditions: i.p. every other day from day 6. As for the experimental part: C57BL/6 mice (n=5/group) were injected s.c. in the right flank with 7×10^4 TC-1 cells. Mice from appropriate groups were injected weekly with vaccine (s.c.) or DMSO 5% as a control. Mice were also treated with vaccine (weekly) along with either 10 mg/kg or 20 mg/kg of JJ64-C (or FIG. 7A or Formula 18) injected (i.p.) every other day starting on day 6 after tumor implantation throughout the experiment.
FIGS. 7C and 7D are bar diagrams representing average tumor volumes of mice for each group. FIG. 7E is a Kaplan-Meier plot of the overall survival. Statistical significance was determined by Log-rank (Mantel-Cox) test.
as §3

Assay [4] relates to iTreg induction (CD4+FoxP3+ cells). Description: iTreg induction from CD4+FoxP3- cells (TGF-β), flow cytometry. The assay is classed as cell-based. The following applies: anti-CD3, IL2, anti-CD28, TGF-β, 72 hrs. On the procedure: FACS-sorted CD4+FoxP3− cells were plated on anti-CD3-coated plates with soluble IL2 and anti-CD28 with TGF-β (induction) Cell were induced for iTregs with JJ64-B (FIG. 6A) without inhibitor (Induction-IND)) for 72 hrs. Cells were harvested and the frequency of CD4+FoxP3+ cells was measured by flow cytometry.
FACS-sorted CD4+FoxP3− cells were plated on anti-CD3-coated plates with soluble IL2 and anti-CD28 with TGF-β (induction) Cell were induced for iTregs with JJ64-C (JJ64 modified drug C or Formula 18) or without inhibitor (Induction-IND)) for 72 hrs. Cells were harvested and the frequency of CD4+FoxP3+ cells was measured by flow cytometry.
FACS-sorted CD4+FoxP3− cells were plated on anti-CD3-coated plates with soluble IL2 and anti-CD28 with TGF-β (induction) Cell were induced for iTregs with JJ64-D (JJ64 modified drug D or FIG. 9A) or without inhibitor (Induction-IND)) for 72 hrs. Cells were harvested and the frequency of CD4+FoxP3+ cells was measured by flow cytometry.

Setting [5] is: high dose as monotherapy (10 or 20 mg/kg tested).
Where [6] appears, read: lower dose combined with weekly vaccine s.c. (10 or 20 mg/kg tested).
[7] abbreviates: high dose as monotherapy (10 or 20 mg/kg).
Setting [8] is: lower dose combined with weekly vaccine s.c. (10 or 20 mg/kg).

T2 sequence (Q9WUA6 whole entry): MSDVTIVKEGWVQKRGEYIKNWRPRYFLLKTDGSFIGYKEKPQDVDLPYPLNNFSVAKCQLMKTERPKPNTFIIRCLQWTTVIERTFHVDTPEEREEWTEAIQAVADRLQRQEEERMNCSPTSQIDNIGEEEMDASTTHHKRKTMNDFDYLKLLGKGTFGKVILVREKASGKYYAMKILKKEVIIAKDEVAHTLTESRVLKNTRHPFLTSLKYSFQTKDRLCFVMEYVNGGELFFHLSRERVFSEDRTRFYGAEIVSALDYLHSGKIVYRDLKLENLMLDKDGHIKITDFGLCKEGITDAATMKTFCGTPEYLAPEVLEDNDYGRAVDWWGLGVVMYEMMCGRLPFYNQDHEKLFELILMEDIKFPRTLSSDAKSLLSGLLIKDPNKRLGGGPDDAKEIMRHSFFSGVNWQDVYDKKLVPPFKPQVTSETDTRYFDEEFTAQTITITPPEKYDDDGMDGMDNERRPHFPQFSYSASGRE
T1 sequence (P31750 whole entry): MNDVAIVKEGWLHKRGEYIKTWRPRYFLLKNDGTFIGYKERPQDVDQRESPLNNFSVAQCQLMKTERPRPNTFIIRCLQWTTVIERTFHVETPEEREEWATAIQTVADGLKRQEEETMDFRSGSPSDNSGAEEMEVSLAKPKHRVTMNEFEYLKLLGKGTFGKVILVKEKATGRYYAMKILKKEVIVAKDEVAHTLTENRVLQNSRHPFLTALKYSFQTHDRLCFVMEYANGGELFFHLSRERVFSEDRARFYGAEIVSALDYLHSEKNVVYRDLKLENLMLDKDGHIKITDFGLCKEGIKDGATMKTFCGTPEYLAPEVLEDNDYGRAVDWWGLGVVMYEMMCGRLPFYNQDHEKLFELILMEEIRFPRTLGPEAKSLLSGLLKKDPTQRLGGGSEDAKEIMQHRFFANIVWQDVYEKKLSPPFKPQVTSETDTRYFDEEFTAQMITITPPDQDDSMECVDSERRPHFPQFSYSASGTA

For the compound `O=C(Nc1ccc(Nc2ccncc2)cc1)c1ccc(Nc2ccnc3ccc([N+](=O)[O-])cc23)cc1` [4-[(6-nitroquinolin-4-yl)amino]-N-[4-(pyridin-4-ylamino)phenyl]benzamide], the “Akt1 phosphorylation in Tregs (pAkt1 immunoblot)” value on Akt1 is recorded as “not Akt1 phosphorylation”. For the same compound, in the assay on nTregs, the “Treg proliferation (level of VCT)” value is “selectively inhibits Treg proliferation”. Moreover, in [1], the “CD8 T cells in vivo” value was “does not affect CD8”; the “other (FoxP3neg) CD4 T cells in vivo” value is “does not affect CD8 and other (FoxP3neg) CD4 T cells”. The “other CD4 T cell proliferation (level of VCT)” value with CD4+ T cells is “sparing CD8 and other CD4 T cells”. For the same compound, the “Akt3 phosphorylation in Tregs (pAkt3 immunoblot)” value at Akt3 is on record as “inhibits Akt3”. For the same compound, the “percentage of Tregs (CD4+Foxp3+) in vivo” value with Tregs (CD4+Foxp3+) is listed as “decreases Tregs in vivo”. For the same compound, in the assay with TC-1 tumor [2] (setting [5]), the “TC-1 tumor growth (tumor volume)” value was “inhibits TC-1 tumor growth” and the “overall survival (Kaplan-Meier)” value is on record as “prolongs the survival”. Further, in the assay on TC-1 tumor [2] (setting [6]), the “TC-1 tumor growth (tumor volume)” value was “inhibits TC-1 tumor growth” and the “overall survival (Kaplan-Meier)” value was “prolongs the survival”. For the same compound, in the assay with CD8+ T cells, the “CD8 T cell proliferation (level of VCT)” value is “sparing CD8”.
Consider `O=C(Nc1cccc(Nc2ccncc2)c1)c1cccc(Nc2ccnc3ccc(F)cc23)c1` [compound 18], for which, in the assay on TC-1 tumor [3] (setting [7]), the “TC-1 tumor growth (tumor volume)” value is given as “inhibits TC-1 tumor growth” and the “overall survival (Kaplan-Meier)” value was “prolongs the survival”. Further, in the assay with TC-1 tumor [3] (setting [8]), the “TC-1 tumor growth (tumor volume)” value was “inhibits TC-1 tumor growth” and the “overall survival (Kaplan-Meier)” value is “prolongs the survival”. Further, the “iTreg induction (frequency of CD4+FoxP3+ cells)” value in assay [4] is “inhibits iTregs induction”.
